According to patent publication US7169785B2, “Methods and compositions of novel triazine compounds” (Reddy US Therapeutics, Inc., priority 2001, dated 2007):

Tests used:
IL-6 = experiment: TNF-α-induced IL-6 production determined by IL-6 ELISA in HAEC; type: cell-based, human; conditions: Homo sapiens, 24 h, read-out: % IL6 production compare to TNF stimulation of IL6 (100%), HAEC, @ 5 uM
cells = experiment: Cytotoxicity / lactate dehydrogenase assay and visual observation of cells; type: cell-based
Protocol: Assays for determining the activity of compounds capable of cytotoxic activity include those taught in herein and others that are well known in the art. In general, to determine if there is cytotoxic activity associated with a compound, cells of a particular type, in a growing stage or a quiescient stage, are treated with the compound of interest. Various parameters of cell death or cessation are used to measure the effects of the compound. For example, the amount of nucleic acid or protein synthesis can be measured or visual observation of the state of the cells, such as release from the substrate, can be used to measure the state of the cells.
An appropriate number of cells are plated in four 96-well plates, one plate for “day 0” and three plates for days 1–3. Cells are treated with at least one compound of the present invention in varying concentrations with and without the apoptosis inducer cisplatin (2 μM) (“+cis” or “−cis”). Unteated cells are also assayed with and without cisplatin. After transfection, the plates are incubated at 37° C. overnight.
An appropriate number of cells are plated in four 96-well plates, one plate for “day 0” and three plates for days 1–3. Cells are treated with at least one compound of the present invention in varying concentrations. The negative control cells have normal media conditions, a duplicate set of wells is treated with the composition in which the compound is provided, but there is no added compound and the positive control cells are treated with the apoptosis inducer cisplatin (2 μM). All of the cells are transfected with a vector having a promoter that is responsive to apoptosis conditions. When apoptosis occurs, the promoter is turned on and the lactic dehydrogenase gene is activated and the enzyme protein is made and active. Activity is easily detected with a color change. After transfection, the plates are incubated at 37° C. overnight.
About 8 mls of warmed alpha MEM LDH lysis buffer (2% Triton X100) and about 8 mls of culture media (½ dilution) are combined. Two 96-well v-bottom plates are prepared, one labeled “lysis” and one labeled “supernatant.” To lyse the cells, about 200 μl Alpha MEM lysis buffer (diluted ½) is added to one test plate from which the supernatant has been removed and added to the plate labeled supernatant. After mixing, about 200 μl of lysed cells are transferred to the lysis plate. Both the lysis and supernatant plates are centrifuged at about 1600 rpm for about 10 min. After centrifugation, about 100 μl of both the supernatant or lysate is transferred to corresponding 96-well flat-bottomed plates.
The assay for cytotoxicity uses the Cytotoxicity Detection Kit (LDH) from Roche Diagnostics Corp. (Indianapolis, Ind.). Using the directionts provided, the dye solution is mixed and added each well of the lysate and supernatant plate and incubated for up to 20–25 min at 15–25° C. in the dark.

endothelial cells = experiment: Toxicity to endothelial cells when AGE stimulated; type: cell-based, human
Protocol: Human aortic endothelial cells (HAEC, Clonetics) were cultured according to manufacturer in growth medium (Clonetics): basal medium containing human epidermal growth factor, hydrocortisone, vascular endothelial growth factor, heparin binding growth factor-B, long R3-insulin-like growth factor-1, ascorbic acid, gentamicin/amphotericin and 5% FBS. These cell were allowed to reach at least 90% confluency before subjected to experimental treatments. […] Tumor necrosis factor α was from R&D Systems.
All treatments, compound-added and controls were carried out in serum free media containing 0.2% albumin. Media from all conditions were collected and used for IL-6 ELISA.

HAEC = experiment: Toxicity to endothelial cells (HAEC) when TNF stimulated; type: cell-based
Protocol: Human aortic endothelial cells (HAEC, Clonetics) were cultured according to manufacturer in growth medium (Clonetics): basal medium containing human epidermal growth factor, hydrocortisone, vascular endothelial growth factor, heparin binding growth factor-B, long R3-insulin-like growth factor-1, ascorbic acid, gentamicin/amphotericin and 5% FBS. These cell were allowed to reach at least 90% confluency before subjected to experimental treatments. Glycated human serum albumin (G-HSA) was from US Biologicals. Tumor necrosis factor α was from R&D Systems.
[…] All treatments, compound-added and controls were carried out in serum free media containing 0.2% albumin. Media from all conditions were collected and used for IL-6 ELISA.

COc1ccc(Nc2nc(Nc3ccc(OC)c(Cl)c3)nc(N(C)C3CCN(C)CC3)n2)cc1Cl [Compound 121]
activity at 5 µM (IL-6): 50%
Starts blunting by (cells): 1 µM
Toxic by toxicity assay at (cells): 0.75 µM
rounding by (cells): 5 µM
Toxic (AGE-treated) (endothelial cells): toxic
some toxicity (HAEC; HAEC, @ 5 uM): ~20%
cell death in TNF-stimulated IL6 test (HAEC; human, 24 h, 10 uM): total cell death
